Measured values as given in US20120122791A1, “SUBSTRATE FOR CARTILAGE CULTIVATION USING ARTIFICIAL COLLAGEN, AND METHOD FOR CARTILAGE REGENERATION TREATMENT USING THE SUBSTRATE” (JNC CORPORATION, priority 2009, published 2012).

Legend:
cartilage cells = assay: Proteoglycan production ability of cartilage cells (Na2 35SO4 incorporation) by addition of artificial collagen aqueous solution; format: cell-based, New Zealand white rabbits; details: 7 days, vs 0% control
Method: (§1) Shoulder joints and knee joints were extirpated from 5 New Zealand white rabbits (male, 8- to 9 week-old), and only a cartilage layer was excised and sampled with a surgical knife. After washing with a sterilized PBS solution, pronase was added to 25 ml of Dulbecco's Modified Eagle's medium+gentacin (25 μg/ml) at a concentration of 0.4% (W/V), and incubation was performed at 37° C. for 2 hours. The solution was supplemented with collagenase at a concentration of 0.025% (W/V), and incubated at 37° C. overnight. The resulting solution was washed to collect cartilage cells. After that, the cartilage cells were seeded into a dish with a diameter of 90 mm at 1 to 2×10^6 cells/dish, and a medium exchange was performed once every 3 days. At the time point where the cells became confluent, subcultivation was performed only once. The following experiments were performed by using cells which had been subcultivated once. Further, the composition of a cultivation medium is as described below.
Cartilage cells in a semi-confluent state were detached from a dish by a tripsin-EDTA solution treatment, supplemented with a cultivation medium, and washed by centrifugation. After that, the cells were seeded into a 6-well plate at 1.5×10^6 cells/well and cultivated under conditions of 37° C. and 5% CO2.
At 24 hours after the start of the cultivation, a 1% (W/V) artificial collagen aqueous solution was diluted with a cultivation medium to prepare 0.10, 0.20, 0.30, 0.40, and 0.50% (W/V) artificial collagen aqueous solutions. The artificial collagen aqueous solutions were allowed to act on the cells for an additional 7 days, and further supplemented with 10 μCi/ml Na2^35SO4 to perform cultivation for the last 24 hours. A medium exchange was performed once every 3 days. It should be noted that a 0% (W/V) artificial collagen aqueous solution was used as a control.
After the completion of the above-mentioned cultivation, the cells were washed with a fresh cultivation medium, and a lysis buffer (4 M GuHCl, 0.05 M NaAC, pH 6.0) supplemented with protease inhibitors (0.1 M 6-aminohexanoic acid, 0.005 M benzamidine hydrochloride, 0.01 M Nae EDTA, 0.01 M N-ethylmaleimide, and 0.001 M phenylmethyl sulfonyl fluoride) was added into each well. The cells were extracted at 4° C. for 4 hours, and centrifuged at 15000 rpm at 4° C. for 20 minutes.
The cells were eluted with an elution buffer (4 M GuHCl, 0.05 M Na acetate, 0.1 M Na sulfate, and 0.5% Triton X-10 (pH 7.5)) by using a PD-10 pre-packed column (GE Healthcare Bio-Sciences Ltd.) to fractionate samples. To each of the fractionated samples, ethanol and a scintillator were added and mixed, and the radioactivity content (cpm) was measured with a liquid scintillation counter. Further, the DNA amount of each of the samples used in this case was measured with a Hoechst 33258 dye to determine a DNA value expressed as cpm/mg.

type 2 collagen mRNA = assay: Type 2 collagen mRNA amount in cartilage cells by addition of artificial collagen aqueous solution (real-time PCR); format: cell-based, New Zealand white rabbits; details: relative to 0% defined as 1
Method: as §1
(§2) Cartilage cells in a semi-confluent state were detached from a dish by a tripsin-EDTA solution treatment, supplemented with a cultivation medium, and then washed by centrifugation. After that, the cells were seeded into a 12-well plate at 3×10^5 cells/well, and cultivation was started under conditions of 37° C. and 5% CO2.
(§3) At 24 hours after the start of the cultivation, a 1% (W/V) artificial collagen aqueous solution was diluted with a cultivation medium to prepare 0.10, 0.20, 0.30, 0.40, and 0.50% (W/V) artificial collagen aqueous solutions. Then, cultivation was performed for 4, 7, 14, and 21 days. It should be noted that a 0% (W/V) artificial collagen aqueous solution was used as a control.
(§4) After the completion of the above-mentioned cultivation, the cartilage cells were collected, and RNA extraction was performed by using RNeasy (registered trademark) Mini Kit (QIAGEN). A reverse transcription reaction was performed by using QuantiTect (registered trademark) Reverse Transcription Kit (QIAGEN). To be more specific, Real-time PCR was performed by the following method.
(§5) The model used for Real-time PCR was ABI PRISM 7000 (Applied Biosystems), and the reagents used were Real-time PCR Master Mix (TOYOBO) and Pre-Developed TaqMan & reg; Assay Reagents Eukaryotic 18S rRNA (Applied Biosystems), TaqMan & reg; Probe kit (Applied Biosystems).
(§6) At 50° C. for 2 minutes, at 95° C. for 10 minutes (at 95° C. for 15 seconds, at 60° C. for 1 minute)×40 cycles.

aggrecan mRNA = assay: Aggrecan mRNA amount in cartilage cells by addition of artificial collagen aqueous solution (real-time PCR); format: cell-based, New Zealand white rabbits; details: relative to 0% defined as 1
Method: as §1, §2, §3, §4, §5, §6

cartilage defect model = assay: Cartilage regeneration by intraarticular administration in cartilage defect model (modified ICRS score, Safranin-0 staining, type 2 collagen immunostaining); format: in vivo, New Zealand white domestic rabbits; details: for macroscopic observation of knee joints: collected Week 7; for Safranin-0-stained area ratio compared to control group / Safranin-0 stained area compared to control group / type 2 collagen antibody-immunostained area compared to control group / type 2 collagen antibody-immunostained area ratio compared to control group: intraarticular
Method: A cartilage defect with a diameter of 5 mm was made on the patellofemoral joint of each of 18 knees of 9 New Zealand white domestic rabbits (22 week-old, 3.4 to 3.8 kg) after anesthesia, and further, a wound was sutured to prepare a cartilage defect model (Week 0). The 18 knees were divided into 3 groups, and on Week 1, Week 3, and Week 5, physiological saline was administered for a control group, and an intraarticular injection (0.1 ml/kg) was performed for an artificial collagen aqueous solution administration group. After that, knee joints were collected on Week 7. The ICRS score in Table 4 below is an evaluation method generally used when cartilage grafting to a cartilage defect is performed. The inventors of the present invention adopted, as an evaluation method in the case of administering a medicament without performing cartilage grafting, a modified ICRS score, which is an evaluation method involving using two items of “Degree of defect repair” and “Macroscopic appearance” and performing evaluation with a total score of 0 to 8. […] As recognized from the result of modified ICRS score described in FIG. 12, cartilage regeneration could be achieved by the intraarticular administration of the artificial collagen aqueous solution as the substrate for cartilage cultivation of the present invention. It should be noted that the results with a modified ICRS score are expressed as an average of scores of 6 knees for the control group, an average of 6 knees for the 0.1% (W/V) group, and an average of 6 knees for the 0.5% (W/V) group. In addition, a Mann-Whitney U test was used for statistics. […] The stained areas of the 0.1% (W/V) artificial collagen administration group and the 0.5% (W/V) artificial collagen administration group were larger compared to the stained area of the control group. In particular, a proteoglycan was present in a large amount. In addition, the stained area ratios of the 0.1% (W/V) artificial collagen administration group and the 0.5% (W/V) artificial collagen administration group were larger compared to the stained area ratio of the control group. […] The stained areas of the 0.1% (W/V) artificial collagen administration group and the 0.5% (W/V) artificial collagen administration group were larger compared to the stained area of the control group. In addition, the stained area ratios of the 0.1% (W/V) artificial collagen administration group and the 0.5% (W/V) artificial collagen administration group were larger compared to the stained area ratio of the control group.

## Poly(Tripeptide-6) [artificial collagen aqueous solution]
Cartilage cells; 0.10% (W/V)
  proteoglycan production: significantly enhanced
Cartilage cells; 0.20% (W/V)
  proteoglycan production: significantly enhanced
Cartilage cells; 0.30% (W/V)
  proteoglycan production: significantly enhanced
Cartilage cells; 0.40% (W/V)
  proteoglycan production: significantly enhanced
Cartilage cells; 0.50% (W/V)
  proteoglycan production: significantly enhanced
Type 2 collagen mRNA; Day 4, 0.10% (W/V)
  type 2 collagen mRNA expression: significantly enhanced
Type 2 collagen mRNA; Day 7, 0.40% (W/V)
  type 2 collagen mRNA expression: lowered
Type 2 collagen mRNA; Day 7, 0.50% (W/V)
  type 2 collagen mRNA expression: lowered
Type 2 collagen mRNA; Day 21, 0.40% (W/V)
  type 2 collagen mRNA expression: lowered
Type 2 collagen mRNA; Day 21, 0.50% (W/V)
  type 2 collagen mRNA expression: lowered
Aggrecan mRNA; Day 4, the respective concentrations (0.10 to 0.50% (W/V))
  aggrecan mRNA amount: no significant change
Aggrecan mRNA; Day 7, the respective concentrations (0.10 to 0.50% (W/V))
  aggrecan mRNA amount: no significant change
Aggrecan mRNA; Day 21, 0.20% (W/V)
  aggrecan mRNA amount: significantly lowered
Aggrecan mRNA; Day 21, 0.30% (W/V)
  aggrecan mRNA amount: significantly lowered
Aggrecan mRNA; Day 21, 0.40% (W/V)
  aggrecan mRNA amount: significantly lowered
Aggrecan mRNA; Day 21, 0.50% (W/V)
  aggrecan mRNA amount: significantly lowered
Cartilage defect model; 0.1% (W/V), intraarticular 0.1 ml/kg on Week 1, 3, 5, Week 7, Mann-Whitney U test
  modified ICRS score vs control group: significant difference
Cartilage defect model; 0.1% (W/V), intraarticular 0.1 ml/kg on Week 1, 3, 5
  macroscopic observation of knee joints: many knee joints have smooth surfaces
Cartilage defect model; 0.1% (W/V), Week 7
  Safranin-0-stained area ratio compared to control group: larger
  Safranin-0 stained area compared to control group: larger
  type 2 collagen antibody-immunostained area compared to control group: larger
  type 2 collagen antibody-immunostained area ratio compared to control group: larger
Cartilage defect model; 0.5% (W/V), intraarticular 0.1 ml/kg on Week 1, 3, 5
  macroscopic observation of knee joints: many sparse fissures
Cartilage defect model; 0.5% (W/V), Week 7
  Safranin-0-stained area ratio compared to control group: larger
  Safranin-0 stained area compared to control group: larger
  type 2 collagen antibody-immunostained area compared to control group: larger
  type 2 collagen antibody-immunostained area ratio compared to control group: larger
